# Test results published in patent US20060276520A1 (priority 2002, published 2006).
# Values joined by “and” are separate entries in the source; they are usually repeats but may differ in a detail not shown here. Identical values can stand only once.
# What was measured:
# APC2/APC11 = APC2/APC11 (Homo sapiens, UniProt Q9NYG5+Q9UJX6); assay: biochemical
# MDM2/P53 = MDM2/P53 (Homo sapiens, UniProt Q00987); assay: biochemical
# MDM2/P53, sequence (Q00987 whole entry): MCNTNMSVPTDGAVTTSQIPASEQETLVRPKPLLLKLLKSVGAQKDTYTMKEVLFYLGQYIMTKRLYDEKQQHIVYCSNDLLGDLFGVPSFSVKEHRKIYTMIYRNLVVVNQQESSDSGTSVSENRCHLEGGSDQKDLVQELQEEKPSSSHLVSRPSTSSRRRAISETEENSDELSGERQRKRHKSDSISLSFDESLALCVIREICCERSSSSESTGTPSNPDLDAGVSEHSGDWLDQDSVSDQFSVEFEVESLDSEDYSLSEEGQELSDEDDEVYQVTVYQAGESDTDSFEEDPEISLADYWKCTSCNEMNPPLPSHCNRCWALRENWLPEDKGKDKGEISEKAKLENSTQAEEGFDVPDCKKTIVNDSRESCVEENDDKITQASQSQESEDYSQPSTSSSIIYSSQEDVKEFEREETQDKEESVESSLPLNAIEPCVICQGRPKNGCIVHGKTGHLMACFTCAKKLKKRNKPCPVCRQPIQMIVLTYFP
# APC2/APC11, sequence (Q9UJX6 whole entry): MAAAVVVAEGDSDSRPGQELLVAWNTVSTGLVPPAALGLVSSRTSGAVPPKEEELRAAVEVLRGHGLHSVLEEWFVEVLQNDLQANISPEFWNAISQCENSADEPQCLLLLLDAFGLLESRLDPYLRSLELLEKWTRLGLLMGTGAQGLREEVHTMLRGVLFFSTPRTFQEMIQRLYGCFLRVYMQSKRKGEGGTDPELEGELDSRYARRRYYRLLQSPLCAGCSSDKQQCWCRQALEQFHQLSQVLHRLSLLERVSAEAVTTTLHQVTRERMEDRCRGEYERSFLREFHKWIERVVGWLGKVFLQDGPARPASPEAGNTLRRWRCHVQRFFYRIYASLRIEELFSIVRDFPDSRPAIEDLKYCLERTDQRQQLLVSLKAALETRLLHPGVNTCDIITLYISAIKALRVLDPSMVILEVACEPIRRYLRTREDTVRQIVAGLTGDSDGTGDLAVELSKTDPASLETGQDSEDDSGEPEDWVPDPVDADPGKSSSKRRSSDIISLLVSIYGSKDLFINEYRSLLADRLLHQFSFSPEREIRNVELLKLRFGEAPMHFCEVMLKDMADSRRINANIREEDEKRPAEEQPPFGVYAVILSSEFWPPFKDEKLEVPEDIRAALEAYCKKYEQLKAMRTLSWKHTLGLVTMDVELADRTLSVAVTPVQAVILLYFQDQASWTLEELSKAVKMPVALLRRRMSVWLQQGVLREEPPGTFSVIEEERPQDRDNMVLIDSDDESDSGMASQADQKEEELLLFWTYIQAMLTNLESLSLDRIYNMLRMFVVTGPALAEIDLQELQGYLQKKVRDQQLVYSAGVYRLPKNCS
# APC2/APC11, sequence (Q9NYG5 whole entry): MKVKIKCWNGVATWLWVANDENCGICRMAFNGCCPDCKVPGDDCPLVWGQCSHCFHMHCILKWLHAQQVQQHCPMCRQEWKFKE
Structure (SMILES),IC50 (APC2/APC11),IC50 (MDM2/P53) [µM]
"CN1C(=O)/C(=C/c2ccc(-c3ccc(S(N)(=O)=O)cc3)o2)SC1=S [Compound 23, 4-{5-[(Z)-(3-methyl-4-oxo-2-thioxo-1,3-thiazolidin-5-ylidene)methyl]-2-furyl}benzenezulffonamide]",5.15 µM,7.94
"O=C1/C(=C/c2ccc(-c3ccc(Br)cc3)o2)SC(=S)N1c1ccccc1 [Compound 27, (5Z)-5-{[5-(4-bromophenyl)-2-furyl]methylene}-3-phenyl-2-thioxo-1,3-thiazolidin-4-one]",–,10.7
"C=CCN1C(=O)/C(=C\c2ccc(-c3cccc(C(F)(F)F)c3)o2)SC1=S [Compound 63, (5E)-3-allyl-2-thioxo-5-({5-[3-(trifluoromethyl)phenyl]-2-furyl}methylene)-1,3-thiazolidin-4-one]",0.2 µM,–
"CCOc1ccc(N2C(=O)/C(=C\c3ccc(-c4ccc(Br)cc4)o3)SC2=S)cc1 [Compound 69, (5E)-5-{[5-(4-bromophenyl)-2-furyl]mthylene}-3-(4-ethoxyphenyl)-2-thioxo-1,3-thiazolidin-4-one]",–,14.2
"O=C1/C(=C\c2ccc(-c3ccc([N+](=O)[O-])cc3)o2)SC(=S)N1CCc1ccccc1 [Compound 75, (5E)-5-{[5-(4-nitrophenyl)-2-furyl]methylene}-3-(2-phenylethyl)-2-thioxo-1,3-thiazolidin-4-one]",–,13.6
"O=C1/C(=C\c2ccc(-c3cccc([N+](=O)[O-])c3)o2)SC(=S)N1Cc1ccccc1 [Compound 98, (5E)-3-benzyl-5-{[5-(3-nitrophenyl)-2-furyl]methylene}-2-thioxo-1,3-thiazolidin-4-one]",–,11.6
"O=C(O)CN1C(=O)/C(=C\c2ccc(-c3ccc(Cl)cc3)o2)SC1=S [Compound 145, ((5E)-5-{[5-(4-chlorophenyl)-2-furyl]methylene}-4-oxo-2-thioxo-1,3-thiazolidin-3-yl)acetic acid]",10 µM,–
"O=C(O)CN1C(=O)/C(=C\c2ccc(-c3cccc(C(F)(F)F)c3)o2)SC1=S [Compound 146, [(5E)-4-oxo-2-thioxo-5-({5-[3-(trifluoromethyl)phenyl]-2-furyl]methylene)-1,3-thiazolidin-3-yl]acetic acid]",10 µM,–
"O=C(O)c1cccc(-c2ccc(/C=C3\SC(=S)N(C4CCCCC4)C3=O)o2)c1 [Compound 176, 3-{5-[(Z)-(3-cyclohexyl-4-oxo-2-thioxo-1,3-thiazolidin-5-ylidene)methyl]-2-furyl}benzoic acid]",0.4 µM and 0.7 µM,–
"CN1C(=O)/C(=C\c2ccc(-c3cccc([N+](=O)[O-])c3)o2)SC1=S [Compound 183, (5E)-3-methyl-5-{[5-(3-nitrophenyl)-2-furyl]methylene}-2-thioxo-1,3-thiazolidin-4-one]",0.1 µM,–
"O=C1/C(=C/c2ccc(-c3ccc([N+](=O)[O-])cc3)o2)SC(=S)N1Cc1ccccc1 [Compound 199, (5Z)-3-benzyl-5-{[5-(4-nitrophenyl)-2-furyl]methylene}-2-thioxo-1,3-thiazolidin-4-one]",0.1 µM,–
"O=C1NC(=S)S/C1=C/c1ccc(-c2ccc(Cl)cc2)o1 [Compound 238, (5E)-5-{[5-(4-chlorophenyl)-2-furyl]methylene}-2-thioxo-1,3-thiazolidin-4-one]",5 µM,–
"O=C1/C(=C/c2ccc(-c3cccc([N+](=O)[O-])c3)o2)SC(=S)N1CC1CCCO1 (stereo not drawn) [Compound 254, (5Z)-5-{[5-(3-nitrophenyl)-2-furyl]methylene}-3-(tetrahydrofuran-2-ylmethyl)-2-thioxo-1,3-thiazolidin-4-one]",–,24.8
"O=C1NC(=S)S/C1=C/c1ccc(-c2cc(Cl)ccc2Cl)o1 [Compound 270, (5E)-5-{[5-(2,5-dichlorophenyl)-2-furyl]methylene}-2-thioxo-1,3-thiazolidin-4-one]",3 µM,–
"O=C1C(Cc2ccc(-c3ccccc3Cl)o2)SC(=S)N1Cc1ccc2c(c1)OCO2 (stereo not drawn) [Compound 305, 3-(1,3-benzodioxol-5-ylmethyl)-5-{[5-(2-chlorophenyl)-2-furyl]methyl}-2-thioxo-1,3-thiazolidin-4-one]",–,10.8

# The next lines start with the values.
IC50 (APC2/APC11),IC50 (MDM2/P53) [µM],Structure (SMILES)
2.06 µM,5.64,"O=C(O)CCN1C(=O)/C(=C/c2ccc(-c3ccc(Br)cc3)o2)SC1=S [Compound 25, 3-((5Z)-5-{[5-(4-bromophenyl)-2-furyl]methylene}-4-oxo-2-thioxo-1,3-thiazolidin-3-yl)propanoic acid]"
–,0.8,"O=C1/C(=C/c2ccc(-c3ccccc3)o2)SC(=S)N1c1ccccc1 [Compound 28, (5Z)-3-phenyl-5-[(5-phenyl-2-furyl)methylene]-2-thioxo-1,3-thiazolidin-4-one]"
1.44 µM,1.21,"CN1C(=O)/C(=C\c2ccc(-c3ccc(Cl)cc3)o2)SC1=S [Compound 29, (5E)-5-{[5-(4-chlorophenyl)-2-furyl]methylene}-3-methyl-2-thioxo-1,3-thiazolidin-4-one]"
–,6.1,"CN1C(=O)/C(=C/c2ccc(-c3cccc4ccccc34)o2)SC1=S [Compound 33, (5Z)-3-methyl-5-{[5-(1-naphtthyl)-2-furyl]methylene}-2-thioxo-1,3-thiazolidin-4-one]"
–,5.52,"O=C1/C(=C\c2ccc(-c3ccc(Cl)cc3)o2)SC(=S)N1C1CCS(=O)(=O)C1 (stereo not drawn) [Compound 40, (5E)-5-{[5-(4-chlorophenyl)-2-furyl]methylene}-3-(1,1-dioxidotetrahydro-3-thienyl)-2-thioxo-1,3-thiazolidin-4-one]"
–,0.81,"O=C(O)CCN1C(=O)/C(=C/c2ccc(-c3ccc(Cl)cc3Cl)o2)SC1=S [Compound 77, 3-((5Z)-5-{[5-(2,4-dichlorophenyl)-2-furyl]methylene}-4-oxo-2-thioxo-1,3-thiazolidin-3-yl)propanoic acid]"
–,0.21,"O=C1/C(=C\c2ccc(-c3ccccc3Cl)o2)SC(=S)N1C1CCS(=O)(=O)C1 (stereo not drawn) [Compound 99, (5E)-5-{[5-(2-chlorophenyl)-2-furyl]methylene}-3-(1,1-dioxidotetrahydro-3-thienyl)-2-thioxo-1,3-thiazolidin-4-one]"
–,3.87,"NS(=O)(=O)c1ccc(-c2ccc(/C=C3\SC(=S)N(CCc4ccccc4)C3=O)o2)cc1 [Compound 103, 4-(5-{(Z)-[4-oxo-3-(2-phenylethyl)-2-thioxo-1,3-thiazolidin-5-ylidene]methyl}-2-furyl)benzenesulfonamide]"
–,0.53,"O=C(O)CCN1C(=O)/C(=C\c2ccc(-c3ccc(Cl)c(Cl)c3)o2)SC1=S [Compound 256, 3-((5E)-5-{[5-(3,4-dichlorophenyl)-2-furyl]methylene}-4-oxo-2-thioxo-1,3-thiazolidin-3-yl)propanoic acid]"
–,5.21,"O=C1/C(=C/c2ccc(-c3ccccc3Cl)o2)SC(=S)N1CCc1ccccn1 [Compound 278, (5Z)-5-{[5-(2-chlorophenyl)-2-furyl]methylene}-3-(2-pyridin-2-ylethyl)-2-thioxo-1,3-thiazolidin-4-one]"
–,0.45,"O=C1/C(=C/c2ccc(-c3ccccc3Cl)o2)SC(=S)N1Cc1ccc2c(c1)OCO2 [Compound 299, (5Z)-3-(1,3-benzodioxol-5-ylmethyl)-5-{[5-(2-chlorophenyl)-2-furyl]methylene}-2-thioxo-1,3-thiazolidin-4-one]"
–,4.6,"C[C@H](NC(=O)CN1C(=O)/C(=C/c2ccc(-c3ccccc3Cl)o2)SC1=S)C(=O)OC(C)(C)C [Compound 302, tert-butyl N-[((5Z)-5-{[5-(2-chlorophenyl)-2-furyl]methylene}-4-oxo-2-thioxo-1,3-thiazolidin-3-yl)acetyl]alaninate]"
